What was measured:
[1] = tested on: NF-κB; assay: NF-κB production inhibitory activity, luciferase reporter gene assay; assay type: cell-based; conditions: 3×κBTK-Luc reporter, 2 h preincubation, TNF-α (20 ng/ml) for 6 hours; FIGS. 1(A), 1(B)
Procedure: A) NF-κB Production Inhibitory Activity
The NF-κB production inhibitory activity was measured by luciferase reporter gene assay as shown below.
[Luciferase Reporter Gene Assay]
A reporter using luciferase DNA was prepared and the NF-κB production inhibitory activity was measured by use of promoter/reporter assay.
As the plasmid for luciferase assay, 3×κBTK-Luc (endowed by Dr. Junichiro INOUE of The Institute of Medical Science, The University of Tokyo) obtained by coupling luciferase gene derived from lampyrid to 3×κB derived from Igκ gene and HSV-TK promoter was used. Further, for the β-galactosidase assay, a plasmid obtained by coupling β-galactosidase gene to β-actin promoter (endowed by Dr. Junichiro INOUE of The Institute of Medical Science, The University of Tokyo) was used.
2) Transfection and Luciferase Assay
Transfection was performed by a DEAE-dextran method. […]
For 10 μl of the sample, 100 μl of a luminescent substrate solution (Tricine (20 mM), (MgCO3).4Mg(OH)2.5H2O (1.07 mM), MgSO4 (2.67 mM), EDTA (0.1 mM), DTT (33.3 mM), Coenzyme A (270 μM), luciferin (470 μM), and ATP (530 μM)) was added and amount of luminescence was quantitated by use of Lumat LB9501 (Berthold: Bad Wildbad, Germany). Further, the measured amounts were corrected by β-galactosidase assay to obtain the value of luciferase activity. […]

[2] = tested on: collagen-induced arthritis; assay: Collagen-induced arthritis preventing effect; assay type: in vivo, mouse; conditions: mice, intraperitoneal 2 mg/kg or 4 mg/kg, 3 times/week, 18 times/6 weeks; FIGS. 2(A), 2(B)
Procedure: B) Collagen-induced Arthritis Preventing Effect
Type II collagen was emulsified together with an equivalent volume of Freund's complete adjuvant to prepare 1.5 mg/ml of administration solution. This was intradermally inoculated to the radicular portion of mouse tail in an amount of 0.1 ml (150 μg/mouse) to sensitize the mouse. After 3 weeks, 0.1 ml of type II collagen emulsified in the same operational manner as described was intraperitoneally administered to mouse (150 μg/mouse) to effect booster immunization to induce arthritis.
6 Animals/group of mice were intraperitoneally administered with DHM2EQ and DHM3EQ in a dosage of 2 mg/kg or 4 mg/kg 3 times/week from the day of initial immunization in a ratio of 0.1 ml/10 g of the bodyweight, in total 18 times/6 weeks. The control group (6 animals/group) was administered with 0.5% CMC solution in the same schedule as described above and to provide normal group (4 animals/group) in which no collagen arthritis was induced. The effect of inhibiting collagen-induced arthritis was evaluated by degrees of the flare, swelling and stiffening of anterior limb and posterior limb in scores of 0 to 4 (the maximum score of total for 4 limbs was 16).

Compound	concentration at which NF-κB activity was inhibited [1] [µg/mL]	inhibition of collagen-induced arthritis (score of flare, swelling, stiffening of 4 limbs) [2]
O=C(NC1=CC(O)C2OC2C1=O)c1ccccc1O (stereo not shown) [DHM3EQ, 5,6-epoxy-4-hydroxy-2-salicyloylamino-2-cyclohexenone]	10	inhibited collagen-induced arthritis
O=C(NC1=CC(=O)C2OC2C1O)c1ccccc1O (stereo not shown) [DHM2EQ, 5,6-epoxy-4-hydroxy-3-salicyloylamino-2-cyclohexenone]	≥ 1	inhibited collagen-induced arthritis

From US6566394B1, “Salicylamide derivatives” (Mercian Corporation, priority 1999, dated 2003)
